Experimental data taken from patent US4988687A, “Cephalosporin derivatives, and antibacterial agents” (priority 1986, dated 1991).
≈ marks a conversion by molar mass, not a printed value. Where two headings read alike, the source gives them in different places.

Columns and labels:
S. aureus 209P NIHJ-JC1 = assay: agar plate dilution method, MIC against S. aureus 209P NIHJ-JC1; assay type: cell-based; conditions: Staphylococcus aureus, read-out: Minimum Inhibitory Concentration (MIC)
Experimental: (§1) The in vitro antibacterial activities of the compounds of the present invention against various microorganisms, were measured by the following agar plate dilution method. One platinum loopfull of each test microorganism incubated overnight in Mueller Hinton broth, was inoculated to Mueller Hinton agar (inoculum size: 10^6 CFU/ml) Such culture media containing various antibiotics in various concentrations were prepared After incubation at 37° C. for 16 hours, the minimum inhibitory concentrations (MIC: μg/ml) were measured. As comparative compounds, cefotaxime, oeftazidime and the compounds disclosed in Example 2 of Japanese Unexamined Patent Publication No. 215690/1985 e.g. sodium 7-[2-(2-aminothiazol-4-yl)-2-ethoxyiminoacetamido]-3-(1-carboxylatemethylpyridinio-4-yl)thiomethyl-3-cephem-4-carboxylate (hereinafter referred to simply as "Reference Example A") were employed.

S. aureus JS1 = assay: agar plate dilution method, MIC against S. aureus JS1; assay type: cell-based; conditions: Staphylococcus aureus, read-out: Minimum Inhibitory Concentration (MIC)
Experimental: as §1

S. aureus BB5703 = assay: agar plate dilution method, MIC against S. aureus BB5703; assay type: cell-based; conditions: Staphylococcus aureus, BB5703, 16 h, read-out: Minimum Inhibitory Concentration (MIC)
Experimental: as §1

S. epidermidis IAM12012 = assay: agar plate dilution method, MIC against S. epidermidis IAM12012; assay type: cell-based; conditions: Staphylococcus epidermidis, IAM12012, 16 h, read-out: Minimum Inhibitory Concentration (MIC)
Experimental: as §1

M. luteus ATCC9341 = assay: agar plate dilution method, MIC against M. luteus ATCC9341; assay type: cell-based; conditions: Micrococcus luteus, read-out: Minimum Inhibitory Concentration (MIC)
Experimental: as §1

C. freundii GN346/16 = assay: agar plate dilution method, MIC against C. freundii GN346/16; assay type: cell-based; conditions: Citrobacter freundii; C. freundii GN346/16; 10^6 CFU/ml, 37° C., 16 hours; read-out: Minimum Inhibitory Concentration (MIC)
Experimental: as §1

E. coli NIHJ JC2 = assay: agar plate dilution method, MIC against E. coli NIHJ JC2; assay type: cell-based; conditions: Escherichia coli, NIHJJC2; E. coli NIHJ JC2; 10^6 CFU/ml, 37° C., 16 hours; read-out: Minimum Inhibitory Concentration (MIC)
Experimental: as §1

E. coli CSH2 (RK1) = assay: agar plate dilution method, MIC against E. coli CSH2 (RK1); assay type: cell-based; conditions: Escherichia coli, 16 h, read-out: Minimum Inhibitory Concentration (MIC)
Experimental: as §1

K. pneumoniae PCI-602 = assay: agar plate dilution method, MIC against K. pneumoniae PCI-602; assay type: cell-based; conditions: Klebsiella pneumoniae, PCI602, 16 h, read-out: Minimum Inhibitory Concentration (MIC)
Experimental: as §1

E. coli CSH(RE45) = assay: agar plate dilution method, MIC against E. coli CSH(RE45); assay type: cell-based; conditions: Escherichia coli, 16 h, read-out: Minimum Inhibitory Concentration (MIC)
Experimental: as §1

K. oxytoca GN10650 = assay: agar plate dilution method, MIC against K. oxytoca GN10650; assay type: cell-based; conditions: Klebsiella oxytoca, read-out: Minimum Inhibitory Concentration (MIC)
Experimental: as §1

K. pneumoniae No. 42 = assay: agar plate dilution method, MIC against K. pneumoniae No. 42; assay type: cell-based; conditions: Klebsiella pneumoniae, read-out: Minimum Inhibitory Concentration (MIC)
Experimental: as §1

P. vulgaris HX-19 = assay: agar plate dilution method, MIC against P. vulgaris HX-19; assay type: cell-based; conditions: Proteus vulgaris, read-out: Minimum Inhibitory Concentration (MIC)
Experimental: as §1

P. vulgaris No. 33 = assay: agar plate dilution method, MIC against P. vulgaris No. 33; assay type: cell-based; conditions: Proteus vulgaris; P. vulgaris No. 33 (lactamase-producing strain); 10^6 CFU/ml, 37° C., 16 hours; read-out: Minimum Inhibitory Concentration (MIC)
Experimental: as §1

S. marcescens IAM 1184 = assay: agar plate dilution method, MIC against S. marcescens IAM 1184; assay type: cell-based; conditions: Serratia marcescens, IAM1184; S. marcescens IAM 1184; 10^6 CFU/ml, 37° C., 16 hours; read-out: Minimum Inhibitory Concentration (MIC)
Experimental: as §1

C. freundii GN346 = assay: agar plate dilution method, MIC against C. freundii GN346; assay type: cell-based; conditions: Citrobacter freundii; C. freundii GN346 (lactamase-producing strain); 10^6 CFU/ml, 37° C., 16 hours; read-out: Minimum Inhibitory Concentration (MIC)
Experimental: as §1

E. cloacae 963 = assay: agar plate dilution method, MIC against E. cloacae 963; assay type: cell-based; conditions: Enterobacter cloacae; E. cloacae 963; 10^6 CFU/ml, 37° C., 16 hours; read-out: Minimum Inhibitory Concentration (MIC)
Experimental: as §1

E. cloacae Nek 39 = assay: agar plate dilution method, MIC against E. cloacae Nek 39; assay type: cell-based; conditions: Enterobacter cloacae, NEK39; E. cloacae Nek 39 (lactamase-producing strain); 10^6 CFU/ml, 37° C., 16 hours; read-out: Minimum Inhibitory Concentration (MIC)
Experimental: as §1

E. coli GN5482 = assay: agar plate dilution method, MIC against E. coli GN5482; assay type: cell-based; conditions: Escherichia coli; E. coli GN5482 (lactamase-producing strain); 10^6 CFU/ml, 37° C., 16 hours; read-out: Minimum Inhibitory Concentration (MIC)
Experimental: as §1

M. morganii GN5407 = assay: agar plate dilution method, MIC against M. morganii GN5407; assay type: cell-based; conditions: Morganella morganii; M. morganii GN5407 (lactamase-producing strain); 10^6 CFU/ml, 37° C., 16 hours; read-out: Minimum Inhibitory Concentration (MIC)
Experimental: as §1

S. marcescens No. 16-2 = assay: agar plate dilution method, MIC against S. marcescens No. 16-2; assay type: cell-based; conditions: Serratia marcescens, read-out: Minimum Inhibitory Concentration (MIC)
Experimental: as §1

Ps. aeruginosa IFO3445 = assay: agar plate dilution method, MIC against Ps. aeruginosa IFO3445; assay type: cell-based; conditions: Pseudomonas aeruginosa; Ps. aeruginosa IFO3445; 10^6 CFU/ml, 37° C., 16 hours; read-out: Minimum Inhibitory Concentration (MIC)
Experimental: as §1

Ps. aeruginosa AK 109 = assay: agar plate dilution method, MIC against Ps. aeruginosa AK 109; assay type: cell-based; conditions: Pseudomonas aeruginosa, AK109; Ps. aeruginosa AK 109; 10^6 CFU/ml, 37° C., 16 hours; read-out: Minimum Inhibitory Concentration (MIC)
Experimental: as §1

Ps. aeruginosa AKR17 = assay: agar plate dilution method, MIC against Ps. aeruginosa AKR17; assay type: cell-based; conditions: Pseudomonas aeruginosa, AKR17, 16 h, read-out: Minimum Inhibitory Concentration (MIC)
Experimental: as §1

Ps. cepacia 23 = assay: agar plate dilution method, MIC against Ps. cepacia 23; assay type: cell-based, Pseudomonas cepacia; conditions: Burkholderia cepacia, 23, 16 h, read-out: Minimum Inhibitory Concentration (MIC)
Experimental: as §1

Ps. maltophilia GN 12873 = assay: agar plate dilution method, MIC against Ps. maltophilia GN 12873; assay type: cell-based, Pseudomonas maltophilia; conditions: Stenotrophomonas maltophilia, GN12873; Ps. maltophilia GN 12873 (lactamase-producing strain); 10^6 CFU/ml, 37° C., 16 hours; read-out: Minimum Inhibitory Concentration (MIC)
Experimental: as §1

A. calcoaceticus No. 4 = assay: agar plate dilution method, MIC against A. calcoaceticus No. 4; assay type: cell-based; conditions: Acinetobacter calcoaceticus; A. calcoaceticus No. 4; 10^6 CFU/ml, 37° C., 16 hours; read-out: Minimum Inhibitory Concentration (MIC)
Experimental: as §1

[1] = test system: sensitive and resistant Gram-positive bacteria and Gram-negative bacteria particularly glucose non-fermentative Gram-negative rods; assay: antibacterial activity and spectrum (in words); assay type: cell-based; conditions: in vitro
Experimental: as §1

SMILES: Nc1nc(C(=NOC(C(=O)O)c2ccc(O)c(O)c2)C(=O)NC2C(=O)N3C(C(=O)[O-])=C(CSc4cc[n+](CC(=O)O)cc4)CSC23)cs1 (stereo not drawn) [Example 5, 7-[2-(2-aminothiazol-4-yl)-2-(α-carboxy-3,4-dihydroxybenzyloxyimino)acetamido]-3-(1-carboxymethylpyridinio-4-yl)thiomethyl-3-cephem-4-carboxylate (syn-isomer)]
- MIC (S. aureus 209P NIHJ-JC1; S. aureus 209P NIHJ-JC1, 10^6 CFU/ml, Mueller Hinton agar, 37° C., 16 hours): 0.78 µg/mL (≈ 1.09 µM)
- MIC (S. aureus JS1; JS1, 16 h): 6.25 µg/mL (≈ 8.72 µM)
- MIC (S. aureus BB5703): 3.12 µg/mL (≈ 4.35 µM)
- MIC (S. epidermidis IAM12012): 1.56 µg/mL (≈ 2.18 µM)
- MIC (M. luteus ATCC9341; M. luteus ATCC9341, 10^6 CFU/ml, 37° C., 16 hours): 0.78 µg/mL (≈ 1.09 µM)
- MIC (C. freundii GN346/16): 0.39 µg/mL (≈ 0.544 µM)
- MIC (E. coli NIHJ JC2): 0.1 µg/mL (≈ 0.14 µM)
- MIC (E. coli CSH2 (RK1)): 0.05 µg/mL (≈ 0.0698 µM)
- MIC (K. pneumoniae PCI-602): < 0.006 µg/mL
- MIC (E. coli CSH(RE45)): 0.05 µg/mL (≈ 0.0698 µM)
- MIC (K. oxytoca GN10650; K. oxytoca GN10650 (lactamase-producing strain), 10^6 CFU/ml, 37° C., 16 hours): 0.05 µg/mL (≈ 0.0698 µM)
- MIC (K. pneumoniae No. 42; K. pneumoniae No. 42 (lactamase-producing strain), 10^6 CFU/ml, 37° C., 16 hours): 0.2 µg/mL (≈ 0.279 µM)
- MIC (P. vulgaris HX-19; HX19, 16 h): 0.025 µg/mL (≈ 0.0349 µM)
- MIC (P. vulgaris No. 33): 0.05 µg/mL (≈ 0.0698 µM)
- MIC (S. marcescens IAM 1184): 0.1 µg/mL (≈ 0.14 µM)
- MIC (C. freundii GN346): 25 µg/mL (≈ 34.9 µM)
- MIC (E. cloacae 963): 0.1 µg/mL (≈ 0.14 µM)
- MIC (E. cloacae Nek 39): 0.2 µg/mL (≈ 0.279 µM)
- MIC (E. coli GN5482): 0.2 µg/mL (≈ 0.279 µM)
- MIC (M. morganii GN5407): 0.1 µg/mL (≈ 0.14 µM)
- MIC (S. marcescens No. 16-2; NO.162, S. marcescens No. 16-2 (lactamase-producing strain), 10^6 CFU/ml, 37° C., 16 hours): 0.78 µg/mL (≈ 1.09 µM)
- MIC (Ps. aeruginosa IFO3445): 0.39 µg/mL (≈ 0.544 µM)
- MIC (Ps. aeruginosa AK 109): 0.78 µg/mL (≈ 1.09 µM)
- MIC (Ps. aeruginosa AKR17): 1.56 µg/mL (≈ 2.18 µM)
- MIC (Ps. cepacia 23): < 0.006 µg/mL
- MIC (Ps. maltophilia GN 12873): > 100 µg/mL
- MIC (A. calcoaceticus No. 4): 0.2 µg/mL (≈ 0.279 µM)
- antibacterial activities and antibacterial spectrum (in words) [1]: excellent antibacterial activities and a broad antibacterial spectrum

SMILES: CC(=O)Oc1ccc(C(O/N=C(\C(=O)NC2C(=O)N3C(C(=O)[O-])=C(CSc4cc[n+](CC(=O)O)cc4)CSC23)c2csc(N)n2)C(=O)O)cc1OC(C)=O (stereo not drawn) [Example 6, disodium 7-[2-(2-aminothiazol-4-yl)-2-(α-carboxylate-3,4-diacetoxybenzyloxyimino)acetamido]-3-(1-carboxylatemethylpyridinio-4-yl)thiomethyl-3-cephem-4-carboxylate (syn-isomer)]
- MIC (S. aureus 209P NIHJ-JC1; 16 h): 1.56 µg/mL
- MIC (S. aureus JS1; S. aureus JS1 (methicilline resistant; lactamase-producing strain), 10^6 CFU/ml, 37° C., 16 hours): 25 µg/mL
- MIC (S. aureus BB5703): 6.25 µg/mL
- MIC (S. epidermidis IAM12012): 3.12 µg/mL
- MIC (M. luteus ATCC9341; ATCC9341, 16 h): 3.12 µg/mL
- MIC (C. freundii GN346/16): 0.39 µg/mL
- MIC (E. coli NIHJ JC2): 0.2 µg/mL
- MIC (E. coli CSH2 (RK1)): 0.05 µg/mL
- MIC (K. pneumoniae PCI-602): < 0.006 µg/mL
- MIC (E. coli CSH(RE45)): 0.05 µg/mL
- MIC (K. oxytoca GN10650; GN10650, 16 h): 0.2 µg/mL
- MIC (K. pneumoniae No. 42; NO.42, 16 h): 0.1 µg/mL
- MIC (P. vulgaris HX-19; HX19, P. vulgaris HX-19, 10^6 CFU/ml, 37° C., 16 hours): 0.1 µg/mL
- MIC (P. vulgaris No. 33): 0.1 µg/mL
- MIC (S. marcescens IAM 1184): 0.2 µg/mL
- MIC (C. freundii GN346): 25 µg/mL
- MIC (E. cloacae 963): 0.39 µg/mL
- MIC (E. cloacae Nek 39): 0.78 µg/mL
- MIC (E. coli GN5482): 0.39 µg/mL
- MIC (M. morganii GN5407): 0.2 µg/mL
- MIC (S. marcescens No. 16-2; NO.162, 16 h): 1.56 µg/mL
- MIC (Ps. aeruginosa IFO3445): 0.78 µg/mL
- MIC (Ps. aeruginosa AK 109): 0.78 µg/mL
- MIC (Ps. aeruginosa AKR17): 1.56 µg/mL
- MIC (Ps. cepacia 23): 0.025 µg/mL
- MIC (Ps. maltophilia GN 12873): > 100 µg/mL
- MIC (A. calcoaceticus No. 4): 0.39 µg/mL
- antibacterial activities and antibacterial spectrum (in words) [1]: excellent antibacterial activities and a broad antibacterial spectrum
